ChEMBL document CHEMBL1201862, “PubChem BioAssay data set” (2004)
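Assay format: 96-well plates, 48-hour exposure. Here, GI50 denotes the concentration required for 50% inhibition of growth.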 Active and inactive are the calls of the source. No stated cut-off is given here; in the data, active = GI50 up to about 1.1 µM and inactive = higher.

How the values were obtained:
Experiment in all cases: NCI anticancer screen, dose series, 48 h
EKVX = system: EKVX
LXFL 529 = system: LXFL 529
NCI-H460 = system: NCI-H460
786-0 = system: 786-0
SR = system: SR
UO-31 = system: UO-31
SNB-75 = system: SNB-75
MOLT-4 = system: MOLT-4
ACHN = system: ACHN
SW-620 = system: SW-620
NCI-H23 = system: NCI-H23
RXF 393 = system: RXF 393
M14 = system: M14
OVCAR-4 = system: OVCAR-4
A498 = system: A498
A549 = system: A549
DMS-273 = system: DMS-273
M19-MEL = system: M19-MEL
SN12C = system: SN12C
HOP-62 = system: HOP-62
OVCAR-3 = system: OVCAR-3
DLD-1 = system: DLD-1
CAKI-1 = system: CAKI-1
SF-539 = system: SF-539
SNB-19 = system: SNB-19
OVCAR-8 = system: OVCAR-8
SF-295 = system: SF-295
U-251 = system: U-251
RPMI-8226 = system: RPMI-8226
HCC 2998 = system: HCC 2998
UACC-257 = system: UACC-257
CCRF-CEM = system: CCRF-CEM
SNB-78 = system: SNB-78
RXF 631 = system: RXF 631
KM-20L2 = system: KM-20L2
K562 = system: K562
SK-MEL-2 = system: SK-MEL-2
SK-OV-3 = system: SK-OV-3
KM12 = system: KM12
HL-60 = system: HL-60
HOP-92 = system: HOP-92
COLO 205 = system: COLO 205
SK-MEL-28 = system: SK-MEL-28
DMS-114 = system: DMS-114
IGROV-1 = system: IGROV-1
HCT-15 = system: HCT-15
HOP-18 = system: HOP-18
HT-29 = system: HT-29
UACC-62 = system: UACC-62
NCI/ADR-RES = system: NCI/ADR-RES
MDA-N = system: MDA-N
HCT-116 = system: HCT-116
MDA-MB-231 = system: MDA-MB-231
BT-549 = system: BT-549
SF-268 = system: SF-268
MCF7 = system: MCF7
NCI-H226 = system: NCI-H226
PC-3 = system: PC-3
SK-MEL-5 = system: SK-MEL-5
T47D = system: T47D
NCI-H522 = system: NCI-H522
TK-10 = system: TK-10
MDA-MB-435 = system: MDA-MB-435
Hs-578T = system: Hs-578T
LOX IMVI = system: LOX IMVI
OVCAR-5 = system: OVCAR-5
Malme-3M = system: Malme-3M
XF498 = system: XF498
DU-145 = system: DU-145

## CC(C)(C)C(=O)Nc1cccc2oc(-c3ccccc3)cc12
EKVX
  GI50: 65.3 µM (inactive)
LXFL 529
  GI50: 36.3 µM (inactive)
NCI-H460
  GI50: > 100 µM (inactive)
786-0
  GI50: > 100 µM (inactive)
SR
  GI50: 88.5 µM (inactive)
UO-31
  GI50: 26.2 µM (inactive)
SNB-75
  GI50: 85.1 µM (inactive)
MOLT-4
  GI50: 49.7 µM (inactive)
ACHN
  GI50: > 100 µM (inactive)
SW-620
  GI50: > 100 µM (inactive)
NCI-H23
  GI50: > 100 µM (inactive)
RXF 393
  GI50: 17.3 µM (inactive)
M14
  GI50: > 100 µM (inactive)
OVCAR-4
  GI50: > 100 µM (inactive)
A498
  GI50: > 100 µM (inactive)
A549
  GI50: > 100 µM (inactive)
DMS-273
  GI50: > 100 µM (inactive)
M19-MEL
  GI50: > 100 µM (inactive)
SN12C
  GI50: > 100 µM (inactive)
HOP-62
  GI50: > 100 µM (inactive)
OVCAR-3
  GI50: > 100 µM (inactive)
DLD-1
  GI50: > 100 µM (inactive)
CAKI-1
  GI50: > 100 µM (inactive)
SF-539
  GI50: > 100 µM (inactive)
SNB-19
  GI50: > 100 µM (inactive)
OVCAR-8
  GI50: > 100 µM (inactive)
SF-295
  GI50: > 100 µM (inactive)
U-251
  GI50: > 100 µM (inactive)
RPMI-8226
  GI50: > 100 µM (inactive)
HCC 2998
  GI50: > 100 µM (inactive)
UACC-257
  GI50: > 100 µM (inactive)
CCRF-CEM
  GI50: > 100 µM (inactive)
SNB-78
  GI50: 14.1 µM (inactive)
RXF 631
  GI50: 47 µM (inactive)
KM-20L2
  GI50: > 100 µM (inactive)
K562
  GI50: > 100 µM (inactive)
SK-MEL-2
  GI50: > 100 µM (inactive)
SK-OV-3
  GI50: > 100 µM (inactive)
KM12
  GI50: > 100 µM (inactive)
HL-60
  GI50: 66.2 µM (inactive)
HOP-92
  GI50: 56.2 µM (inactive)
COLO 205
  GI50: > 100 µM (inactive)
SK-MEL-28
  GI50: > 100 µM (inactive)
DMS-114
  GI50: > 100 µM (inactive)
IGROV-1
  GI50: > 100 µM (inactive)
HCT-15
  GI50: > 100 µM
HOP-18
  GI50: > 100 µM (inactive)
HT-29
  GI50: > 100 µM (inactive)
UACC-62
  GI50: > 100 µM (inactive)

## CC(CCC=O)CCOCc1ccccc1 (stereo not given)
EKVX
  GI50: > 100 µM (inactive)
LXFL 529
  GI50: > 100 µM (inactive)
NCI/ADR-RES
  GI50: > 100 µM (inactive)
NCI-H460
  GI50: > 100 µM (inactive)
MDA-N
  GI50: > 100 µM (inactive)
786-0
  GI50: > 100 µM (inactive)
SR
  GI50: > 54.5 µM (inactive)
HCT-116
  GI50: > 95.9 µM (inactive)
UO-31
  GI50: > 100 µM (inactive)
SNB-75
  GI50: > 100 µM (inactive)
MOLT-4
  GI50: > 40.7 µM (inactive)
ACHN
  GI50: > 100 µM (inactive)
MDA-MB-231
  GI50: 56.6 µM (inactive)
SW-620
  GI50: > 80.7 µM (inactive)
BT-549
  GI50: > 100 µM (inactive)
NCI-H23
  GI50: 67.3 µM (inactive)
SF-268
  GI50: > 100 µM (inactive)
RXF 393
  GI50: > 100 µM (inactive)
M14
  GI50: > 100 µM (inactive)
MCF7
  GI50: 2.8 µM (inactive)
NCI-H226
  GI50: > 100 µM (inactive)
OVCAR-4
  GI50: > 77.8 µM (inactive)
A498
  GI50: > 100 µM (inactive)
A549
  GI50: > 87.5 µM (inactive)
DMS-273
  GI50: > 95.9 µM (inactive)
M19-MEL
  GI50: > 73.8 µM (inactive)
SN12C
  GI50: > 100 µM (inactive)
PC-3
  GI50: > 100 µM (inactive)
SK-MEL-5
  GI50: 37.4 µM (inactive)
HOP-62
  GI50: > 100 µM (inactive)
OVCAR-3
  GI50: > 88.5 µM (inactive)
DLD-1
  GI50: > 100 µM (inactive)
CAKI-1
  GI50: 36.8 µM (inactive)
SF-539
  GI50: > 100 µM (inactive)
SNB-19
  GI50: > 100 µM (inactive)
T47D
  GI50: > 100 µM (inactive)
OVCAR-8
  GI50: 98.4 µM (inactive)
SF-295
  GI50: > 100 µM (inactive)
U-251
  GI50: > 100 µM (inactive)
RPMI-8226
  GI50: 53.7 µM (inactive)
HCC 2998
  GI50: > 100 µM (inactive)
UACC-257
  GI50: 36.5 µM (inactive)
CCRF-CEM
  GI50: > 48.5 µM (inactive)
SNB-78
  GI50: > 100 µM (inactive)
NCI-H522
  GI50: 34.8 µM (inactive)
TK-10
  GI50: > 42 µM (inactive)
KM-20L2
  GI50: > 100 µM (inactive)
MDA-MB-435
  GI50: > 100 µM (inactive)
K562
  GI50: > 63.5 µM (inactive)
Hs-578T
  GI50: > 100 µM (inactive)
LOX IMVI
  GI50: 49.8 µM (inactive)
OVCAR-5
  GI50: > 89.7 µM (inactive)
SK-MEL-2
  GI50: > 100 µM (inactive)
SK-OV-3
  GI50: > 100 µM (inactive)
KM12
  GI50: > 57.1 µM (inactive)
HL-60
  GI50: 18.9 µM (inactive)
HOP-92
  GI50: > 100 µM (inactive)
Malme-3M
  GI50: > 100 µM (inactive)
COLO 205
  GI50: > 100 µM (inactive)
SK-MEL-28
  GI50: > 100 µM (inactive)
DMS-114
  GI50: 61.2 µM (inactive)
IGROV-1
  GI50: > 100 µM (inactive)
HCT-15
  GI50: > 100 µM
HOP-18
  GI50: > 100 µM (inactive)
XF498
  GI50: > 100 µM (inactive)
HT-29
  GI50: > 100 µM (inactive)
UACC-62
  GI50: > 100 µM (inactive)
DU-145
  GI50: > 100 µM (inactive)

## Cc1cc(NS(=O)(=O)c2ccc(NC(=O)c3cccc4c(Nc5ccc(S(=O)(=O)N=C(N)N)cc5)c5ccccc5nc34)cc2)no1
EKVX
  GI50: > 100 µM (inactive)
LXFL 529
  GI50: > 100 µM (inactive)
NCI-H460
  GI50: > 100 µM (inactive)
786-0
  GI50: > 100 µM (inactive)
SR
  GI50: > 100 µM (inactive)
HCT-116
  GI50: > 100 µM (inactive)
UO-31
  GI50: > 100 µM (inactive)
SNB-75
  GI50: > 100 µM (inactive)
MOLT-4
  GI50: > 100 µM (inactive)
ACHN
  GI50: > 100 µM (inactive)
SW-620
  GI50: > 100 µM (inactive)
NCI-H23
  GI50: > 100 µM (inactive)
SF-268
  GI50: > 100 µM (inactive)
RXF 393
  GI50: > 100 µM (inactive)
M14
  GI50: > 100 µM (inactive)
NCI-H226
  GI50: > 100 µM (inactive)
OVCAR-4
  GI50: > 100 µM (inactive)
A498
  GI50: > 100 µM (inactive)
A549
  GI50: > 100 µM (inactive)
DMS-273
  GI50: > 100 µM (inactive)
SN12C
  GI50: > 100 µM (inactive)
SK-MEL-5
  GI50: > 100 µM (inactive)
HOP-62
  GI50: > 100 µM (inactive)
OVCAR-3
  GI50: > 100 µM (inactive)
DLD-1
  GI50: > 100 µM (inactive)
CAKI-1
  GI50: > 100 µM (inactive)
SF-539
  GI50: > 100 µM (inactive)
SNB-19
  GI50: > 100 µM (inactive)
OVCAR-8
  GI50: > 100 µM (inactive)
SF-295
  GI50: > 100 µM (inactive)
U-251
  GI50: > 100 µM (inactive)
RPMI-8226
  GI50: > 100 µM (inactive)
HCC 2998
  GI50: > 100 µM (inactive)
UACC-257
  GI50: > 100 µM (inactive)
SNB-78
  GI50: > 100 µM (inactive)
NCI-H522
  GI50: > 100 µM (inactive)
TK-10
  GI50: > 100 µM (inactive)
RXF 631
  GI50: > 100 µM (inactive)
KM-20L2
  GI50: > 100 µM (inactive)
K562
  GI50: > 100 µM (inactive)
LOX IMVI
  GI50: > 100 µM (inactive)
OVCAR-5
  GI50: > 100 µM (inactive)
SK-OV-3
  GI50: > 100 µM (inactive)
KM12
  GI50: > 100 µM (inactive)
HL-60
  GI50: > 100 µM (inactive)
HOP-92
  GI50: > 100 µM (inactive)
Malme-3M
  GI50: > 100 µM (inactive)
COLO 205
  GI50: > 100 µM (inactive)
SK-MEL-28
  GI50: > 100 µM (inactive)
IGROV-1
  GI50: > 100 µM (inactive)
HCT-15
  GI50: > 100 µM
HT-29
  GI50: > 100 µM (inactive)
UACC-62
  GI50: > 100 µM (inactive)
